Experimental data from patent US20050060764A1, “Mouse model for bone metabolism” (priority 2003, published 2005).
Strand notation (5' to 3'): a small letter for the sugar, then the base; units joined by * are phosphorothioate-linked, units joined directly phosphodiester-linked; [ ] holds rarer units or linkages, { } end groups; capitals alone tell only the bases. e = 2'-O-(2-methoxyethyl) (MOE); [5mC] = 5-methylcytosine; d = 2'-deoxy (DNA)

Legend:
RANK mRNA [1] = test: RANK mRNA expression in mouse proximal tibia after antisense oligonucleotide treatment and PTH infusion: dose response and delivery method (Table 12); type: in vivo; conditions: then 24 h PTH
Procedure: In accordance with the present invention, ISIS 181071 was evaluated for its ability to inhibit RANK expression and PTH-induced serum calcium concentration increase following 18 days of oligonucleotide treatment.
Female Swiss-Webster mice (5-8 wks old), fed a low-calcium diet, were treated for 18 days with ISIS 181071 (SEQ ID NO: 356) at different doses and through different delivery methods. The dose of oligonucleotide was either 30 mg/kg, 20 mg/kg, 10 mg/kg, 3 mg/kg, or 0.1 mg/kg administered by daily subcutaneous injections for the first five days, followed by mini-pump infusion for the remaining 13 days, or the dose was 10 mg/kg or 30 mg/kg administered daily by subcutaneous injection for the entire 18 day period. After 18 days of treatment with oligonucleotides, the mice were infused with PTH by subcutaneously implanted mini-pumps at a dose of 1 ug/100 g/6 hr. A group of control mice received saline, calcitonin (400 ng) plus PTH (1 ug/100 g/6 hr) or PTH alone (1 ug/100 g/6 hr). After 24 hours of PTH infusion (total PTH delivery of 4ug/100 g), the mice were sacrificed and measurements were made of serum calcium with the Sigma Diagnostics Calcium Kit (Sigma-Aldrich) and RANK mRNA expression in proximal tibia (as described in other examples herein). The results are shown in Table 12 are normalized to PTH treatment alone and are the average of four mice per group.

[2] = Serum calcium after RANK antisense oligonucleotide treatment and PTH infusion: time course (Table 13); type: in vivo, mouse; conditions: for Serum calcium concentration: then 24 h PTH
Procedure: (§1) In accordance with the present invention, ISIS 181071 was administered to mice for different time periods to evaluate its ability to inhibit RANK expression and PTH-induced serum calcium concentration increase as a function of oligonucleotide treatment time.
(§2) Female Swiss-Webster mice (5-8 wks old) were fed a low-calcium diet and received daily subcutaneous injections of 30 mg/kg of ISIS 181071 (SEQ ID NO: 356) for 2, 3, 5, 7, 10, 14, or 21 days. At the end of the oligonucleotide treatment period, mice were infused with PTH by subcutaneously implanted mini-pumps at a dose of 1 ug/100 g/6 hr. A group of control mice were dosed with either saline, PTH alone (1 ug/100 g/6 hr) or calcitonin (400 ug) plus PTH (1 ug/100 g/6 hr). Following 24 hours of PTH infusion (total PTH delivery of 4ug/100 g), the mice were sacrificed and measurements were made of serum calcium with the Sigma Diagnostics Calcium Kit (Sigma-Aldrich) and RANK mRNA expression in the proximal tibia (as described in other examples herein). Percent RANK mRNA inhibition is normalized to PTH alone treatment.

RANK mRNA [3] = test: RANK mRNA expression in mouse proximal tibia after antisense oligonucleotide treatment and PTH infusion: time course (Table 13); type: in vivo; conditions: for RANK mRNA % inhibition (normalized to PTH) Proximal Tibia: then 24 h PTH
Procedure: as §1, §2

RANK mRNA [4] = test: RANK mRNA expression in mouse bone marrow after antisense oligonucleotide treatment and PTH infusion: time course (Table 13); type: in vivo; conditions: then 24 h PTH
Procedure: as §2

[5] = mice, 30 mg/kg daily s.c. for 2, 3, 5, 7, 10, 14, or 21 days, 24 hours PTH infusion

TCCTCGAGAGGTCTCCTTGC (antisense eT*e[5mC]*e[5mC]*eT*e[5mC]*dG*dA*dG*dA*dG*dG*dT*d[5mC]*dT*d[5mC]*e[5mC]*eT*eT*eG*e[5mC]) [ISIS 181071, 2′-MOE gapmer antisense oligonucleotide targeted to mouse RANK]
RANK mRNA % inhibition (normalized to PTH) (RANK mRNA [1]; 0.1 mg/kg, injection 5 days then infusion 13 days): 19% | RANK mRNA % inhibition (normalized to PTH) (RANK mRNA [1]; 3 mg/kg, injection 5 days then infusion 13 days): 5% | RANK mRNA % inhibition (normalized to PTH) (RANK mRNA [1]; 10 mg/kg daily subcutaneous injection 18 days): 29% | RANK mRNA % inhibition (normalized to PTH) (RANK mRNA [1]; 10 mg/kg, injection 5 days then infusion 13 days): 23% | RANK mRNA % inhibition (normalized to PTH) (RANK mRNA [1]; 20 mg/kg, injection 5 days then infusion 13 days): 33% | RANK mRNA % inhibition (normalized to PTH) (RANK mRNA [1]; 30 mg/kg daily subcutaneous injection 18 days): 30% | RANK mRNA % inhibition (normalized to PTH) (RANK mRNA [1]; 30 mg/kg, injection 5 days then infusion 13 days): 32% | Serum calcium concentration ([2]; 30 mg/kg daily sc for 2 days): 20 mg/dL | Serum calcium concentration ([2]; 30 mg/kg daily sc for 3 days): 17 mg/dL | Serum calcium concentration ([2]; 30 mg/kg daily sc for 5 days): 16 mg/dL | Serum calcium concentration ([2]; 30 mg/kg daily sc for 7 days): 16 mg/dL | Serum calcium concentration ([2]; 30 mg/kg daily sc for 10 days): 18 mg/dL | Serum calcium concentration ([2]; 30 mg/kg daily sc for 14 days): 15 mg/dL | Serum calcium concentration ([2]; 30 mg/kg daily sc for 21 days): 15 mg/dL | PTH-induced increase in serum calcium concentration [2, 5]: lessens the PTH-induced increase in serum calcium concentration | RANK mRNA % inhibition (normalized to PTH) Proximal Tibia (RANK mRNA [3]; 30 mg/kg daily sc for 2 days): 34% | RANK mRNA % inhibition (normalized to PTH) Proximal Tibia (RANK mRNA [3]; 30 mg/kg daily sc for 3 days): 14% | RANK mRNA % inhibition (normalized to PTH) Proximal Tibia (RANK mRNA [3]; 30 mg/kg daily sc for 5 days): 32% | RANK mRNA % inhibition (normalized to PTH) Proximal Tibia (RANK mRNA [3]; 30 mg/kg daily sc for 7 days): 61% | RANK mRNA % inhibition (normalized to PTH) Proximal Tibia (RANK mRNA [3]; 30 mg/kg daily sc for 10 days): 37% | RANK mRNA % inhibition (normalized to PTH) Proximal Tibia (RANK mRNA [3]; 30 mg/kg daily sc for 14 days): 53% | RANK mRNA % inhibition (normalized to PTH) Proximal Tibia (RANK mRNA [3]; 30 mg/kg daily sc for 21 days): 52% | RANK mRNA expression in the proximal tibia (RANK mRNA [3]; [5]): inhibition of RANK mRNA in the proximal tibia | RANK mRNA % inhibition (normalized to PTH) Bone Marrow (RANK mRNA [4]; 30 mg/kg daily sc for 2 days): 0% | RANK mRNA % inhibition (normalized to PTH) Bone Marrow (RANK mRNA [4]; 30 mg/kg daily sc for 3 days): 35% | RANK mRNA % inhibition (normalized to PTH) Bone Marrow (RANK mRNA [4]; 30 mg/kg daily sc for 5 days): 32% | RANK mRNA % inhibition (normalized to PTH) Bone Marrow (RANK mRNA [4]; 30 mg/kg daily sc for 7 days): 44% | RANK mRNA % inhibition (normalized to PTH) Bone Marrow (RANK mRNA [4]; 30 mg/kg daily sc for 10 days): 18% | RANK mRNA % inhibition (normalized to PTH) Bone Marrow (RANK mRNA [4]; 30 mg/kg daily sc for 14 days): 36% | RANK mRNA % inhibition (normalized to PTH) Bone Marrow (RANK mRNA [4]; 30 mg/kg daily sc for 21 days): 8%
